Laboratory results as given in patent US11384115B2, “Nuclear sulfated oxysterol, potent regulator of lipid homeostasis, for therapy of hypercholesterolemia, hypertriglycerides, fatty liver diseases, and atherosclerosis” (Virginia Commonwealth University, priority 2004, dated 2022).
Where two headings read alike, the source gives them in different places.

What was measured:
PPARγ mRNA = PPARγ mRNA by real time RT-PCR in macrophages; type: cell-based, human
Description: (§1) Total RNA was isolated from THP-1 derived macrophages following treatments for 6 hrs otherwise as indicated using SV Total RNA Isolation Kit (Promega, Wisconsin, Wis.), which includes DNase treatment. Two microgram of total RNA was used for first-strand cDNA synthesis as recommended by manufacturer (Invitrogen, Carlsbad, Calif.). Real-time RT-PCR was performed using SYBR Green as indicator on ABI 7500 Fast Real-Time PCR System (Applied Biosystems, Foster City, Calif.). The final reaction mixture contained 10 ng of cDNA, 100 nM of each primer, 10 μl of 2×SYBR® Green PCR Master Mix (Applied Biosystems, Foster City, Calif.), and RNase-free water to complete the reaction mixture volume to 20 μl. All reactions were performed in triplicate. PCR was carried out for 40 cycles of 95° C. for 15 s and 60° C. for 1 min. The fluorescence was read during the reaction, allowing a continuous monitoring of the amount of PCR product. The data was normalized to internal control GAPDH.

NFκB = test: Western blot of nuclear NFκB levels in THP-1 macrophages; type: cell-based, human
Description: A, THP-1 macrophages were treated with 25HC3S or 25HC for 24 hrs followed by addition or no addition of TNFα for another 3 hrs. The nuclear NFκB levels were analyzed by Western blot. The data represent one typical result out of three experiments.
Fifty μg of total cell lysates or nuclear protein extracts, otherwise as indicated, were separated on 10% SDS-PAGE gels and transferred onto a polyvinylidene difluoride membrane as described previously [31]. Membranes were blocked in TBS containing 5% of nonfat dried milk for 1 hr. The specific proteins were determined by incubation with specific antibodies against human PPAR or IκB overnight at 4° C. with shaking. After washing, the membrane was incubated in a 1:3,000 dilution of a secondary antibody (goat anti-rabbit or anti-mouse IgG-HP conjugate; Bio-Rad, Hercules, Calif.) at room temperature for 1 hr in the washing buffer (Tris buffered solution containing 0.5% Tween 20). The protein bands were visualized using Western Lightening Chemiluminescence Reagent (Perkin-Elmer, Waltham, Mass.). The expression levels were normalized to Lamin.

HMG CoA reductase mRNA = HMG CoA reductase mRNA by real-time RT-PCR in primary human hepatocytes; type: cell-based; set-up: effect on levels of HMG CoA reductase mRNA: dose or concentration left out as unconfirmed; conditions: for inhibition of HMG CoA reductase mRNA: PHH cultured in serum-free media
Description: Primary human hepatocytes were purchased from an NIH-approved facility (Liver Tissue Procurement Distribution System, Univ. of Minnesota). Cells were obtained from a random sampling of males and females 18-69 yr of age. Experiments were performed as cells became available to corroborate findings in experiments conducted in HepG2 cells as previous described (13).
Total RNA was isolated from HepG2 cells using SV Total RNA Isolation Kit (Promega). Two μg of total RNA was used for first-strand cDNA synthesis as recommended by manufacture (Invitrogen). Real-time PCR was performed using SYBR Green on ABI 7500 Fast Real-Time PCR System (Applied Biosystems). The final reaction mixture contained 5 ng of cDNA, 100 nM of each primer, 10 μl of 2×SYBR® Green PCR Master Mix (Applied Biosystems), and RNase-free water to complete the reaction mixture volume to 20 μl. All reactions were performed in triplicate. The PCR was carried out for 40 cycles at 95° C. for 15 s and 60° C. for 1 min. The fluorescence was read during the reaction, allowing a continuous monitoring of the amount of PCR product. The data was normalized to internal control-β-actin or GAPDH mRNA. The sequences of primers for HMG CoA reductase used in real-time PCR are […] (SEQ ID NO: 1) (Forward) and […] (SEQ ID NO: 2) (Reverse).

[1] = Water solubility (statement); type: physicochemical
TNFα and IL-1β mRNA = test: LPS-induced TNFα, IL-1β and NFκB mRNA by real-time RT-PCR in THP-1 macrophages; type: cell-based, human; conditions: for LPS-induced IL-1β mRNA levels / LPS-induced TNFα mRNA levels: 25 hours; for LPS-induced IL-1β mRNA levels: FIG. 28A; for LPS-induced TNFα mRNA levels: FIG. 28B
Description: FIGS. 28A and B. Addition of 25HC3S suppresses LPS-induced IL-1β (A) and TNFα (B) expression in macrophages. To study the effect of 25HC3S on LPS-induced TNFα and IL-1β expression and release, macrophages were treated with 1 μg/ml of LPS and different concentrations of 25HC3S and 25HC as indicated for 25 hours; mRNA levels of TNFα and IL-1β were determined by real time RT-PCR. The results represent mean SD. […] Both 25HC3S and 25HC repressed LPS-induced TNFα mRNA levels as shown in B.
as §1
pSilencer2.1-U6 neo siRNA expression vector and negative control for RNAi were purchased from Ambion, Inc. (Austin, Tex.). Three human PPARγ oligonucleotide sequences, […] (siRNA1, SEQ ID NO: 13), […] (siRNA2, SEQ ID NO: 14), and […] (siRNA3, SEQ ID NO: 15), were selected as specific siRNAs to target human PPARγ. Synthetic sense and antisense oligonucleotides were annealed by incubated at 90° C. for 3 min and then at 37° C. for 1 hr. The double stranded oligonucleotides were cloned into the BamH I-Hind III sites of the pSilencer2.1-U6 neo vector according manufacturer's protocol. The control RNA interference (RNAi) sequence was a randomly scrambled and was not found in the mouse, human, or rat genome databases. All of the constructs were confirmed by sequencing. THP-1 macrophages were transfected with a PPARγ siRNA or control RNAi using FugeneHD reagent according to the manufacturer's instructions (Roche Applied Science, Indianapolis, Ind.). After incubation for 4 hrs, the medium was changed with normal medium and compounds were added at appropriate concentrations as indicated. Cells were harvested after 48 hrs following the addition, and PPARγ protein levels were determined using western blot and mRNA levels of inflammatory response factors were measured by real time RT-PCR analysis.

IL-1β and TNFα release = test: ELISA analysis of LPS-induced cytokine releases from macrophages; type: cell-based, human; conditions: LPS 1 μg/ml, 24 hrs; for LPS-induced IL-1β release: concentration-dependent
Description: A total of 1×10^6 macrophages were treated with LPS (1 μg/ml) and/or different concentrations of 25HC or 25HC3S for 24 hrs. Supernatants were harvested and cytokines IL-1ß and TNF-α concentration were measured by enzyme-linked immunosorbent assay (ELISA) according to manufacturer's instruction (SuperArray Bioscience, Frederick Md.). SiRNA-mediated macrophage RNA interference

| water solubility [1] | water solubility ([1]; listed as 25-hydroxycholesterol 3-sulfate) | Compound | PPARγ mRNA levels (PPARγ mRNA) | nuclear NFκB levels (NFκB; in the absence of TNFα, 24 hrs) | nuclear NFκB levels (NFκB; in the presence of TNFα) | inhibition of HMG CoA reductase mRNA (HMG CoA reductase mRNA) | LPS-induced IL-1β mRNA levels (TNFα and IL-1β mRNA; 1 μg/ml LPS) | LPS-induced TNFα mRNA levels (TNFα and IL-1β mRNA; 1 μg/ml LPS) | LPS-induced TNFα, IL-1β and NFκB expression (TNFα and IL-1β mRNA; 12 μM, 48 hrs, control macrophages) | suppression of IL-1 and TNFα expression in the presence of T0070907 (TNFα and IL-1β mRNA; PPARγ antagonist T0070907) | LPS-induced TNFα, IL-1β and NFκB expression in siRNA-expressed cells (TNFα and IL-1β mRNA; PPARγ knock down macrophages) | suppression of LPS-induced IL-1β mRNA levels (TNFα and IL-1β mRNA; macrophages, 1 μg/ml LPS) | LPS-induced release of TNFα (IL-1β and TNFα release) | LPS-induced IL-1β release (IL-1β and TNFα release) | effect on levels of HMG CoA reductase mRNA (HMG CoA reductase mRNA; PHH, serum-free media) | increase of LPS-induced IL-1β mRNA levels (TNFα and IL-1β mRNA; macrophages, 1 μg/ml LPS) |
| --- | --- | --- | --- | --- | --- | --- | --- | --- | --- | --- | --- | --- | --- | --- | --- | --- |
| water soluble | water-soluble | C[C@H](CCCC(C)(C)O)[C@H]1CC[C@H]2[C@@H]3CC=C4C[C@@H](OS(=O)(=O)O)CC[C@]4(C)[C@H]3CC[C@]12C [25HC3S, 5-cholesten-3β, 25-diol 3-sulphate] | neither 25HC nor 25HC3S was able to change | decreased | failed to decrease | 75% | significantly suppressed | repressed | significantly suppressed | significantly be blunted | failed in suppressing | 2 fold | represses | significantly decreased | – | – |
| – | – | C[C@H](CCCC(C)(C)O)[C@H]1CC[C@H]2[C@@H]3CC=C4C[C@@H](O)CC[C@]4(C)[C@H]3CC[C@]12C [25HC, 25-hydroxycholesterol, reference compound] | neither 25HC nor 25HC3S was able to change | increased | significantly increased | 15% | significantly increased | repressed | – | – | – | – | – | increased | ~15% | 2 fold |
